Patent publication US5843437A, “A82846 antibiotics” (Eli Lilly and Company, priority 1995, dated 1998)
≈ marks a conversion by molar mass, not a printed value. Entries after “also recorded” stand apart in the source; their conditions may differ.

Assays:
[1] = test system: Streptococcus faecalis X-66; experiment: Rat Endocarditis Test, catheter-induced (Table XII); format: in vivo, rats; conditions: 16 days, 20 mg/kg × 28, subcutaneous at 12-hour intervals for 14 days
Protocol: The A82846 antibiotics are also useful in the treatment of endocarditis. […] In this test, rats were prepared by inserting a plastic catheter into the right carotid artery, feeding it down into the […] of the heart and anchoring it securely. The animals were allowed to rest two days, and then the test organism, Streptococcus faecalis X-66, was administered intravenously. The organism titer was approximately 5×10^8 /mL; 0.5 mL was administered.
The compounds were administered subcutaneously 15 minutes prior to infection and at 12-hour intervals for 14 days, a total of 28 treatments. The animals were held 2 days after therapy; then, the hearts were removed, homogenized, diluted and plated on trypticase soy agar. Plates were incubated 48 hours before counting.
^a Catheterinduced endocarditis using Streptococcus faecalis X66
^b Subcutaneous doses at 12hour intervals for 14 days
^c % of animals sacrificed with 4 log drop

[2] = test system: Clostridium perfringens; experiment: microbe, parasite or virus in culture; format: cell-based; conditions: Clostridium perfringens, 24 h
[3] = test system: Peptococcus variabilis; experiment: MIC against anaerobic bacteria, standard agar-dilution assay (Table IX); format: cell-based; conditions: 1 strain; Gram-positive anaerobe; 24-hour incubation; read-out: MIC
[4] = test system: Bacteroides melaninogenicus; experiment: as above; format: cell-based; conditions: 2 strains; Gram-negative anaerobe; 24-hour incubation; read-out: MIC
[5] = test system: Peptococcus magnus; experiment: as above; format: cell-based; conditions: Finegoldia magna; 3 strains; Gram-positive anaerobe; 24-hour incubation; read-out: MIC
[6] = human medicine; cited from earlier work
[7] = test system: Clostridium difficile; experiment: MIC against anaerobic bacteria, standard agar-dilution assay (Table IX); format: cell-based; conditions: Clostridioides difficile; 19 strains; Gram-positive anaerobe; 24-hour incubation; read-out: MIC
[8] = test system: Streptococcus pneumoniae; experiment: protection of mice experimentally infected with test organism (Table X); format: in vivo; conditions: sc, read-out: ED50 Value
Protocol: (§1) The A82846 antibiotics have also shown in vivo antimicrobial activity against experimentally-induced infections in laboratory animals. When two doses of test compound were administered to mice experimentally infected with the test organism, the activity observed was measured as an ED50 value [effective dose in mg/kg to protect 50% of the test animals: see Warren Wick, et al., J. Bacteriol. 81, 233-235 (1961)].
(§2) ^a mg/kg × 2; doses administered subcutaneously to mice 1 and 4

[9] = test system: Staphylococcus aureus; experiment: as above; format: in vivo; conditions: sc, read-out: ED50 Value
Protocol: as §1, §2

[10] = test system: Streptococcus pyogenes; experiment: as above; format: in vivo; conditions: sc, read-out: ED50 Value
Protocol: as §1, §2

[11] = test system: Clostridium septicum; experiment: MIC against anaerobic bacteria, standard agar-dilution assay (Table IX); conditions: Clostridium septicum, 24 h
[12] = test system: Peptostreptococcus anaerobius; experiment: as above; format: cell-based; conditions: Peptostreptococcus anaerobius; 8 strains; Gram-positive anaerobe; 24-hour incubation; read-out: MIC
[13] = test system: Bacteroides fragilis; experiment: as above; format: cell-based; conditions: Bacteroides fragilis; 3 strains; Gram-negative anaerobe; 24-hour incubation; read-out: MIC
[14] = test system: Streptococcus sp. group. D; experiment: MIC by standard agar-dilution assay (Table VIII); format: cell-based; conditions: Streptococcus, 20 strains tested, read-out: MIC
Protocol: (§3) The MIC's in Tables VII and VIII were determined by standard agar-dilution assays.

[15] = test system: Streptococcus pneumoniae; experiment: MIC by standard agar-dilution assay (Table VIII); format: cell-based; conditions: Streptococcus pneumoniae, 20 strains tested, read-out: MIC
Protocol: as §3

[16] = test system: Streptococcus mutans; experiment: MIC by standard agar-dilution assay (Table VIII); format: cell-based; conditions: Streptococcus mutans, 2 strains tested, read-out: MIC
Protocol: as §3

[17] = test system: Staphylococcus aureus; experiment: MIC by standard agar-dilution assay (Table VIII); format: cell-based; conditions: Staphylococcus aureus, 20 strains tested, read-out: MIC
Protocol: as §3

[18] = test system: Streptococcus sanguis; experiment: MIC by standard agar-dilution assay (Table VIII); format: cell-based; conditions: Streptococcus, 4 strains tested, read-out: MIC
Protocol: as §3

[19] = test system: Streptococcus salivaris; experiment: MIC by standard agar-dilution assay (Table VIII); format: cell-based; conditions: Streptococcus, 1 strain tested, read-out: MIC
Protocol: as §3

[20] = test system: Staphylococcus epidermidis; experiment: MIC by standard agar-dilution assay (Table VIII); format: cell-based; conditions: Staphylococcus epidermidis, 20 strains tested, read-out: MIC
Protocol: as §3

[21] = test system: Streptococcus pyogenes; experiment: MIC by standard agar-dilution assay (Table VIII); format: cell-based; conditions: Streptococcus pyogenes, 12 strains tested, read-out: MIC
Protocol: as §3

[22] = test system: Propionibacterium acnes; experiment: MIC against anaerobic bacteria, standard agar-dilution assay (Table IX); format: cell-based; conditions: Cutibacterium acnes; 19 strains; Gram-positive anaerobe; 24-hour incubation; read-out: MIC
[23] = test system: Peptococcus constellatus; experiment: as above; format: cell-based; conditions: Streptococcus constellatus; 1 strain; Gram-positive anaerobe; 24-hour incubation; read-out: MIC
[24] = test system: experimental descending pyelonephritis infection in rats; experiment: Rat Descending Pyelonephritis Test (Table XI); format: in vivo
Protocol: In one important aspect of their antibacterial activity, the A82846 antibiotics are useful for treating pyelonephritis. […] This test was carried out using a procedure like that described in U.S. Pat. No. 4,208,403.
^a Doses twice per day subcutaneously for 6 days

[25] = test system: Fusobacterium necrophorum; experiment: MIC against anaerobic bacteria, standard agar-dilution assay (Table IX); format: cell-based; conditions: Fusobacterium necrophorum; 1 strain; Gram-negative anaerobe; 24-hour incubation; read-out: MIC
[26] = test system: Peptococcus prevoti; experiment: as above; format: cell-based; conditions: 4 strains; Gram-positive anaerobe; 24-hour incubation; read-out: MIC
[27] = test system: Peptococcus asaccharolyticus; experiment: as above; format: cell-based; conditions: Peptoniphilus asaccharolyticus; 3 strains; Gram-positive anaerobe; 24-hour incubation; read-out: MIC
[28] = test system: Cultures A82846 and A82846.1; experiment: resistance to antibiotics, antibiotic sensitivity discs on seeded agar plates; conditions: disc 30 μg
[29] = test system: Peptostreptococcus intermedius; experiment: MIC against anaerobic bacteria, standard agar-dilution assay (Table IX); format: cell-based; conditions: Peptostreptococcus; 3 strains; Gram-positive anaerobe; 24-hour incubation; read-out: MIC
[30] = test system: Bacteroides corrodens; experiment: as above; format: cell-based; conditions: Eikenella corrodens; 1 strain; Gram-negative anaerobe; 24-hour incubation; read-out: MIC
[31] = test system: Eubacterium aerofaciens; experiment: as above; format: cell-based; conditions: Collinsella aerofaciens; 1 strain; Gram-positive anaerobe; 24-hour incubation; read-out: MIC
[32] = serum half-life after intravenous administration to rats; conditions: rat, in vivo, rats, intravenously
Excerpt: The A82846 antibiotics have excellent in vitro and in vivo activity against Gram-positive pathogenic bacteria. A particularly unexpected attribute of these antibiotics is their long serum half-life.

[33] = test system: Fusobacterium symbiosum; experiment: MIC against anaerobic bacteria, standard agar-dilution assay (Table IX); format: cell-based; conditions: Fusobacterium; 1 strain; Gram-negative anaerobe; 24-hour incubation; read-out: MIC
[34] = test system: Bacteroides vulgatis; experiment: as above; format: cell-based; conditions: Bacteroides; 1 strain; Gram-negative anaerobe; 24-hour incubation; read-out: MIC
[35] = test system: Bacteroides thetaiotaomicron; experiment: as above; format: cell-based; conditions: Bacteroides thetaiotaomicron; 1 strain; Gram-negative anaerobe; 24-hour incubation; read-out: MIC
[36] = 2 mg/kg × 12, subcutaneous twice per day for 6 days
[37] = 5 mg/kg × 12, subcutaneous twice per day for 6 days
[38] = 10 mg/kg × 12, subcutaneous twice per day for 6 days

CN[C@H](CC(C)C)C(=O)N[C@H]1C(=O)N[C@@H](CC(N)=O)C(=O)N[C@H]2C(=O)N[C@H]3C(=O)N[C@H](C(=O)N[C@H](C(=O)O)c4cc(O)cc(O)c4-c4cc3ccc4O)[C@H](O)c3ccc(c(Cl)c3)Oc3cc2cc(c3O[C@@H]2O[C@H](CO)[C@@H](O)[C@H](O)[C@H]2O[C@H]2C[C@](C)(N)[C@H](O)[C@H](C)O2)Oc2ccc(cc2Cl)[C@H]1O [Vancomycin, vancomycin, reference compound]
% Cured [1]: 100%
% With 4 Log Drop ([1]; % of animals sacrificed): 100%
MIC [2]: 2 µg/mL (≈ 1.38 µM)
MIC [3]: 1 µg/mL (≈ 0.69 µM)
MIC [4]: > 128 µg/mL
MIC [5]: 0.25 to 1 µg/mL (≈ 0.173 to 0.69 µM)
side effects [6]: ototoxicity; also recorded: nephrotoxicity
MIC [7]: 0.5 to 4 µg/mL (≈ 0.345 to 2.76 µM)
ED50 [8]: 1.52 mg/kg
ED50 [9]: 1.3 mg/kg
ED50 [10]: 0.72 mg/kg
MIC [11]: 2 µg/mL (≈ 1.38 µM)
MIC [12]: 0.25 to 2 µg/mL (≈ 0.173 to 1.38 µM)
MIC [13]: 32 to 64 µg/mL (≈ 22.1 to 44.2 µM)
MIC [14]: 1 to 2 µg/mL (≈ 0.69 to 1.38 µM)
MIC [15]: 0.015 to 4 µg/mL (≈ 0.0104 to 2.76 µM)
MIC [16]: 0.125 to 2 µg/mL (≈ 0.0863 to 1.38 µM)
MIC [17]: 0.5 to 2 µg/mL (≈ 0.345 to 1.38 µM)
MIC [18]: 0.5 to 1 µg/mL (≈ 0.345 to 0.69 µM)
MIC [19]: 0.5 µg/mL (≈ 0.345 µM)
MIC [20]: 1 to 2 µg/mL (≈ 0.69 to 1.38 µM)
MIC [21]: 0.5 µg/mL (≈ 0.345 µM)
MIC [22]: 2 to 16 µg/mL (≈ 1.38 to 11 µM)
MIC [23]: 1 µg/mL (≈ 0.69 µM)
Percent of Rats Cured [24, 36]: 38%
Percent of Rats with a 4-Log Reduction in Titer [24, 36]: 75%
Percent of Rats Cured [24, 37]: 38%
Percent of Rats with a 4-Log Reduction in Titer [24, 37]: 88%
Percent of Rats Cured [24, 38]: 63%
Percent of Rats with a 4-Log Reduction in Titer [24, 38]: 100%
MIC [25]: 1 µg/mL (≈ 0.69 µM)
MIC [26]: 1 to 4 µg/mL (≈ 0.69 to 2.76 µM)
MIC [27]: 1 µg/mL (≈ 0.69 µM)
antibiotic resistance [28]: resistant
MIC [29]: 0.5 to 1 µg/mL (≈ 0.345 to 0.69 µM)
MIC [30]: 64 µg/mL (≈ 44.2 µM)
MIC [31]: 2 µg/mL (≈ 1.38 µM)
half-life [32]: 45 min
MIC [33]: 4 µg/mL (≈ 2.76 µM)
MIC [34]: 64 µg/mL (≈ 44.2 µM)
MIC [35]: 64 µg/mL (≈ 44.2 µM)
